Results from PMC10108392, “Rimonabant-Based Compounds Bearing Hydrophobic Amino Acid Derivatives as Cannabinoid Receptor Subtype 1 Ligands” (ACS Medicinal Chemistry Letters, 2023).
“Also recorded” adds a separate entry of the source.

Assays:
[1] = target: T1, CB1R (Rattus norvegicus, UniProt P20272); experiment: Ligand stimulated [35S]GTPγS binding assay in rat brain membranes; type: biochemical; conditions: rat brain membranes
T1 construct: Crude membrane fractions were prepared from the brain; from tissue; host or cells: Wistar rat whole brain, crude membrane fraction

[2] = test system: mice; experiment: Feeding test (food intake); type: in vivo, mouse; conditions: 10 mg/kg i.p., 1-h test, vs vehicle
Protocol: The tested compounds were injected i.p. (10 mg/kg), and after leaving for 30 min to allow the drug assimilation, mice were placed into individual cages with access to a predefined amount of their standard lab chow (2 g) for the 1-h test.
(§1) In Vivo Biological Assays
The international and national law and policies approved by Italian Ministry of Health were used to comply with all animal care and experimental procedures. Animal studies were advised in compliance with the ARRIVE guidelines and with the recommendations made by EU Directive 2010/63/EU for animal experiments and the Basel declaration including the 3Rs concept. CD-1 male mice (10-14 weeks of age, 25-30 g of weight) were bought from Charles River (Milan, Italy). Shortly after their arrival and for at least one week, they were kept in an animal care facility under controlled standard conditions of temperature (21 ± 1 °C), light (from 7:00 AM to 7:00 PM), and relative humidity (60 ± 10%). Access to drinking water and food was assured. All procedures were performed to decrease the number of animals used (n = 7 per group) and their distress.
The test was carried out as previously described. At 24 h before the start of a feeding test, all food was removed from the home cages of mice to be tested. The next day and at least 1 h before the feeding test began, the mice were transported to the laboratory. On test days, the animals were placed in the home cages for 30 min of drug assimilation, during which food was not available. Then compounds were intraperitoneally administered (10 mg/kg). Mice were transferred into transparent and individual plastic cages with thick white paper lining the bottom and access to a pre-measured amount of their regular lab chow (2 gr) for the 1-h test. At the end of 1 h, mice were repositioned into their home cage. The amount of food left in the trial cage, including crumbs, was measured, and the amount consumed was calculated.
Feeding trials normally happened on Tuesdays and Fridays between 12:00 and 14:00 h. […]

[3] = test system: mice; experiment: Zymosan-induced paw edema; type: in vivo, mouse
Protocol: Drugs were administered s.c. in the dorsal surface of the right hind paw at the dose of 100 μg/20 μL, 15 min before zymosan. […]
testing. […] Then, the compounds were
Compounds were prepared by freshly diluting
Then, these solutions were injected for
The total time the animal spent licking or biting its paw was calculated.
Then, paw edema was calculated as formerly
Paw volume was quantified using a
Data Analysis and Statistics
Statistically significant differences between
Data were considered statistically
The data and statistical analyses respected the recommendations on experimental design and analysis.

[4] = test system: mice; experiment: Hot plate test; type: in vivo, mouse; conditions: 10 μg/10 μL i.c.v., 15-120 min
From the text: as §1
The international and national law and policies approved by Italian Ministry of Health were used to comply with all animal care and experimental procedures. Animal studies were advised in compliance with the ARRIVE guidelines and with the recommendations made by EU Directive 2010/63/EU for animal experiments and the Basel declaration including the 3Rs concept. CD-1 male mice (10-14 weeks of age, 25-30 g of weight) were bought from Charles River (Milan, Italy). […]
The test was carried out as previously described. […] Mice were transferred into transparent and individual plastic cages with thick white paper lining the bottom and access to a pre-measured amount of their regular lab chow (2 gr) for the 1-h test. […] The amount of food left in the trial cage, including crumbs, was measured, and the amount consumed was calculated. […]
Thermal nociception (hot-plate test) was assessed with a commercially available apparatus consisting of a metal plate 25x25 cm (Ugo Basile, Italy) heated to a constant temperature of 55.0 ± 0.1 °C, on which a plastic cylinder (20 cm diameter, 18 cm high) was placed. The time of latency (s) was recorded from the moment the animal was placed in the cylinder on the hot plate until it licked its paws or jumped; the cut-off time was 60 s. […] The time course of latency was then determined at 15, 30, 45, 60, 90 and 120 min after compound treatment. […]

T1 sequence (P20272 whole entry): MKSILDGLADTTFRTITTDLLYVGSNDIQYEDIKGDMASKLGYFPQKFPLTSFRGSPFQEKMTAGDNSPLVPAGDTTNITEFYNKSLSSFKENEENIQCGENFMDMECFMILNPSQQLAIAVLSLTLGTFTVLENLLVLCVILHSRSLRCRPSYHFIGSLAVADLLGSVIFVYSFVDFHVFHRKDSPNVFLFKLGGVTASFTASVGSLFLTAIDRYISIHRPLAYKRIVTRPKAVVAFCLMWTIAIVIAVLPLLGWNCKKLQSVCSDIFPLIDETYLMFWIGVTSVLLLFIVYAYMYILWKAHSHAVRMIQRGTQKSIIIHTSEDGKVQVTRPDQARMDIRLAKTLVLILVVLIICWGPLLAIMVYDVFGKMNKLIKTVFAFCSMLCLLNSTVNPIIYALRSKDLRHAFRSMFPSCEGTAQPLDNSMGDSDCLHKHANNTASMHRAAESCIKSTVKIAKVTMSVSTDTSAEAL

## CNC(=O)[C@@H](NC(=O)c1nn(-c2ccc(Cl)cc2)c(-n2cccc2)c1C)C(C)(C)C [Compound 34, RS2691-tLeu-NHCH3]
[1]; from [35S]GTPγS binding
  CB1R functional profile (agonist / antagonist / inverse agonist): agonist
[1]; ± SEM, read-out: [35S]GTPγS stimulation EC50
  EC50: 46 ± 4.1 nM
[2]
  food intake: increase food intake; also recorded: increased the food intake; also recorded: significant orexic effect
[3]; 100 μg/20 μL s.c., 15 min before zymosan
  anti-inflammatory effect on zymosan-induced paw volume increase: significantly reduce paw volume increase induced by zymosan from 1 to 4 h; also recorded: reduced the paw volume increase from 1 to 4 h
[3]; s.c. injection, for 24 h
  percentage of paw volume in zymosan-induced hindlimb edema: below 75%
[4]
  anti-nociceptive effect in hot plate test (%MPE): strong and long-lasting anti-nociceptive effect; also recorded: more potent than that of the reference compound
